Assay results reported in PMC5951806, “Rapid labelling and covalent inhibition of intracellular native proteins using ligand-directed N-acyl-N-alkyl sulfonamide” (Nature Communications, 2018).

Key:
[1] = target: T1, Aldehyde dehydrogenase family 1 member A3 (ALDH1A3) (Homo sapiens, UniProt P47895); assay: TMT LC-MSMS of 11-labelled proteins; format: cell-based
T1 sequence (P47895 1-512): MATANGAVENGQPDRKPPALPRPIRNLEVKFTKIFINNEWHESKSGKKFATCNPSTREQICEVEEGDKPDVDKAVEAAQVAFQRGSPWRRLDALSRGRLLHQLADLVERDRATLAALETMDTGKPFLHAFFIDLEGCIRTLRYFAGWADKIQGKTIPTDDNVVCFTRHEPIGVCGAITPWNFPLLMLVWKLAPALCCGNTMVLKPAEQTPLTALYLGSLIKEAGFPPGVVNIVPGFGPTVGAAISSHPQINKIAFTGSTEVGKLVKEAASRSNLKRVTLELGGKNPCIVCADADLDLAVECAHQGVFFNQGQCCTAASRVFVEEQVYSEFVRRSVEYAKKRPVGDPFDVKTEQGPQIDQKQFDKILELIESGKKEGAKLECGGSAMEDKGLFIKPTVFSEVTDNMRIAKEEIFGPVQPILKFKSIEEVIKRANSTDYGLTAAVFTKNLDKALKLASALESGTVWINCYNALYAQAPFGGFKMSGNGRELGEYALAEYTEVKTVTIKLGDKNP

[2] = target: T2, heat shock protein 75 kDa, mitochondrial (TRAP1) (Homo sapiens, UniProt Q12931); assay: TMT LC-MSMS of 11-labelled proteins; format: cell-based
T2 sequence (Q12931 60-704): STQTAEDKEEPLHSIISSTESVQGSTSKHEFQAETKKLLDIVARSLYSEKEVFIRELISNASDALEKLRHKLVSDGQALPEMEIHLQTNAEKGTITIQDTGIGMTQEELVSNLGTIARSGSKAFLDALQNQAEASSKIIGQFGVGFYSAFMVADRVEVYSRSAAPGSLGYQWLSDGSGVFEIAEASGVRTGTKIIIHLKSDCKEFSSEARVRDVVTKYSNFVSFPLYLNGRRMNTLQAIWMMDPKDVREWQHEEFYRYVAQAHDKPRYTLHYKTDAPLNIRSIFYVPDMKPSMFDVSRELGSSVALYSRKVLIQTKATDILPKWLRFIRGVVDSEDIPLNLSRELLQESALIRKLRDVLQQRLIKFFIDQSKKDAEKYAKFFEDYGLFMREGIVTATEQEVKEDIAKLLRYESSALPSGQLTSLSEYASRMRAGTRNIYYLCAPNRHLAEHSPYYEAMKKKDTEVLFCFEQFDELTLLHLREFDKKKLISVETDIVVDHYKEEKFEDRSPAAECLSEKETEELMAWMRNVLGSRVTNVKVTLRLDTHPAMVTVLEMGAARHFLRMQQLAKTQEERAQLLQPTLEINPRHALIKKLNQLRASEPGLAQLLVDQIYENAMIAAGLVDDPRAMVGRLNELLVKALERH

[3] = sheet Merged, SKBR3 cells, 11 0.5 µM 3 h vs DMSO
[4] = sheet Merged, SKBR3 cells, 11 0.5 µM 3 h vs with PU-H71 10 µM

- Abundance Ratio: (11) / (11 with PU-H71) ([1]; Exp3, ALDH1A3): 0.892
- Abundance Ratio: (11) / (DMSO) ([1]; Exp3, ALDH1A3): 4.34
- Abundances (Grouped): 11 ([1]; Exp3, ALDH1A3): 42.1
- Abundances (Grouped): 11 with PU-H71 ([1]; Exp3, ALDH1A3, with PU-H71): 47.2
- Abundance Ratio: (11) / (DMSO) ([1]; sheet Exp1, SKBR3 cells, 11 0.5 µM 3 h vs DMSO): 5.076
- Abundance Ratio: (11) / (11 with PU-H71) ([1]; sheet Exp1, SKBR3 cells, 11 0.5 µM 3 h vs with PU-H71 10 µM): 0.894
- Abundance Ratio: (11) / (DMSO) [1, 3]: 4.694
- Abundance Ratio: (11) / (11 with PU-H71) [1, 4]: 0.893
- Abundance Ratio: (11) / (11 with PU-H71) ([2]; Exp3, TRAP1): 0.787
- Abundance Ratio: (11) / (DMSO) ([2]; Exp3, TRAP1): 2.947
- Abundances (Grouped): 11 ([2]; Exp3, TRAP1): 28
- Abundances (Grouped): 11 with PU-H71 ([2]; Exp3, TRAP1, with PU-H71): 35.6
- Abundance Ratio: (11) / (DMSO) [2, 3]: 2.947
- Abundance Ratio: (11) / (11 with PU-H71) [2, 4]: 0.787
SMILES: CC(=O)Oc1ccc2c(c1)Oc1cc(OC(C)=O)ccc1C21OC(=O)c2cc(C(=O)NCCOCCOCCNC(=O)CCCC(=O)N(CC#N)S(=O)(=O)c3ccc(C(=O)NCCCn4c(Sc5cc6c(cc5I)OCO6)nc5c(N)ncnc54)cc3)ccc21 [compound 11]
